Experimental data taken from the CheMixHub viscosity set.
± gives the uncertainty stated by the source.

Assay: xn = mol fraction of the nth substance listed

CCOC(=O)c1ccccc1 + CC(C)O
viscosity [mPa·s], 101 kPa
Conditions | x1 = 0.056 | x1 = 0.1177 | x1 = 0.1862 | x1 = 0.2624 | x1 = 0.348 | x1 = 0.4446 | x1 = 0.546 | x1 = 0.681 | x1 = 0.8277
303.15 K | 1.659 ± 0.04 | 1.664 ± 0.04 | 1.671 ± 0.04 | 1.678 ± 0.041 | 1.686 ± 0.041 | 1.695 ± 0.041 | 1.706 ± 0.041 | 1.719 ± 0.041 | 1.733 ± 0.042
308.15 K | 1.501 ± 0.037 | 1.508 ± 0.037 | 1.515 ± 0.037 | 1.525 ± 0.037 | 1.532 ± 0.037 | 1.541 ± 0.038 | 1.551 ± 0.038 | 1.563 ± 0.038 | 1.577 ± 0.038
313.15 K | 1.327 ± 0.033 | 1.337 ± 0.033 | 1.345 ± 0.033 | 1.356 ± 0.034 | 1.367 ± 0.034 | 1.38 ± 0.034 | 1.394 ± 0.034 | 1.409 ± 0.035 | 1.426 ± 0.035
318.15 K | 1.192 ± 0.03 | 1.203 ± 0.03 | 1.213 ± 0.03 | 1.225 ± 0.03 | 1.239 ± 0.031 | 1.254 ± 0.031 | 1.27 ± 0.031 | 1.291 ± 0.032 | 1.313 ± 0.032
323.15 K | 1.074 ± 0.027 | 1.085 ± 0.027 | 1.099 ± 0.028 | 1.114 ± 0.028 | 1.13 ± 0.028 | 1.15 ± 0.029 | 1.167 ± 0.029 | 1.194 ± 0.03 | 1.222 ± 0.03

CCOC(=O)c1ccccc1 + CCCCCO
viscosity [mPa·s], 101.3 kPa
Conditions | x1 = 0.0771 | x1 = 0.1582 | x1 = 0.2437 | x1 = 0.3339 | x1 = 0.4292 | x1 = 0.53 | x1 = 0.6369 | x1 = 0.7504 | x1 = 0.8712
303 K | 2.883 ± 0.29 | 2.764 ± 0.28 | 2.656 ± 0.27 | 2.533 ± 0.25 | 2.404 ± 0.24 | 2.273 ± 0.23 | 2.135 ± 0.21 | 1.985 ± 0.2 | 1.865 ± 0.19
308 K | 2.541 ± 0.26 | 2.449 ± 0.25 | 2.349 ± 0.24 | 2.25 ± 0.23 | 2.154 ± 0.22 | 2.031 ± 0.2 | 1.92 ± 0.19 | 1.8 ± 0.18 | 1.691 ± 0.17
313 K | 2.224 ± 0.22 | 2.139 ± 0.21 | 2.051 ± 0.21 | 1.962 ± 0.2 | 1.875 ± 0.19 | 1.787 ± 0.18 | 1.701 ± 0.17 | 1.615 ± 0.16 | 1.528 ± 0.15
318 K | 2.005 ± 0.2 | 1.931 ± 0.19 | 1.86 ± 0.19 | 1.789 ± 0.18 | 1.723 ± 0.17 | 1.648 ± 0.17 | 1.56 ± 0.16 | 1.485 ± 0.15 | 1.41 ± 0.14
323 K | 1.798 ± 0.18 | 1.739 ± 0.17 | 1.68 ± 0.17 | 1.626 ± 0.16 | 1.569 ± 0.16 | 1.505 ± 0.15 | 1.439 ± 0.14 | 1.376 ± 0.14 | 1.313 ± 0.13
